Patent US6737085B2, “Apocynum venetum extract for use as antidepressant” (Tokiwa Phytochemical Co., Ltd., priority 2000, dated 2004)
Where a name gives a salt, the structure may show the parent alone.

Tests used:
Male CD rats [1] = experiment: forced swimming test, acute administration; type: in vivo
Method: A common method for evaluating antidepressant effect called as the forced swimming test (Porsolt et al., Nature. 266, 730-732, (1977)) was used as follows. Male CD rats (230-250 g) were used in the tests. Forty animals were divided into groups of 8 animals treated with 30 mg/kg imipramine, 125 mg/kg, 250 mg/kg and 500 mg/kg Apocynum extract and purified water. Test solutions were orally administered 24 h, 5 h and 1 h before testing. Rats were forced to swim for 15 min in a Plexiglas cylinder (40×18 cm i.d.) containing water at 25° C. at a level of 17 cm so that they preliminarily learned that they could not escape from the cylinder. […] All the tests were performed between 1-3 p.m. The images in the tapes were evaluated by a person who was not aware of the treatment of each group.
(§1) Test solutions were prepared by dissolving or suspending Apocynum extract prepared in Example 2 in purified water or dissolving imipramine-HCl (imipramine is a known tricyclic antidepressant) in purified water, and administered at a dose of 10 ml/kg body weight. The results from 8 experimental animals in each group were expressed in mean ”SEM. Statistic significance as compared with control group was determined by ANOVA and multiple comparison tests were made by Fisher-PLSD (p<0.05:*).

Male CD rats [2] = experiment: forced swimming test, repeated administration; type: in vivo
Method: A common method for evaluating antidepressant effect called as the forced swimming test (Porsolt et al., Nature. 266, 730-732, (1977)) was used in the same manner as in Example 3. Male CD rats (230-250 g) were used in the tests. Forty animals were divided into groups of 8 animals treated with 20 mg/kg imipramine, 30 mg/kg, 60 mg/kg and 125 mg/kg Apocynum extract and purified water. Test solutions were orally administered between 3-4 p.m. daily. Rats were forced to swim for 15 min in a Plexiglas cylinder (40×18 cm i.d.) containing water at 25° C. at a level of 17 cm so that they preliminarily learned that they could not escape from the cylinder. […] All the tests were performed between 1-3 p.m. The images in the tapes were evaluated by a person who was not aware of the treatment of each group.
as §1, with “mean±SEM.” for “mean ”SEM.”

Compound: CN(C)CCCN1c2ccccc2CCc2ccccc21 [Imipramine, imipramine-HCl]
- Inactive period (seconds) (Male CD rats [1]; 30 mg/kg orally 24 h, 5 h and 1 h before testing, 5 min swim, mean±SEM, n=8, control 209 ± 20, * p<0.05): 137 ± 18* seconds
- inactive period as compared with control group (Male CD rats [1]; 30 mg/kg, acute oral administration, ANOVA, Fisher-PLSD p<0.05): significantly shortened
- Inactive period (seconds) (Male CD rats [2]; 20 mg/kg orally daily, repeated, 5 min swim 1 h after final administration, mean±SEM, n=8, control 161.54 ± 16.5, * p<0.05): 97.91 ± 9.6* seconds
- inactive period as compared with control group (Male CD rats [2]; 20 mg/kg, repeated oral administration, ANOVA, Fisher-PLSD p<0.05): significantly shortened
